From ChEMBL document CHEMBL5038665, “Identification of the Benzoimidazole Compound as a Selective FLT3 Inhibitor by Cell-Based High-Throughput Screening of a Diversity Library” (J Med Chem, 2022)
Activity calls are given as the source filed them. The rule behind the calls is not given here.

How the values were obtained:
[1] = Antiproliferative activity against human ML-1 cells expressing wild type FLT3 assessed as reduction in cell viability measured after 72 hrs by MTS assay; format: functional, cell-based; conditions: ML1, 72 h
HL-60 = experiment: Antiproliferative activity against human HL-60 cells expressing wild type FLT3 assessed as reduction in cell viability measured after 72 hrs by MTS assay; format: functional, cell-based; conditions: HL-60, 72 h
[2] = Antiproliferative activity against mouse BaF3 cells expressing wild type FLT3 assessed as reduction in cell viability measured after 72 hrs by MTS assay; format: toxicity, cell-based
MOLM-13 = experiment: Antiproliferative activity against human MOLM-13 cells harboring FLT3-ITD mutant assessed as reduction in cell viability measured after 72 hrs by MTS assay; format: functional, cell-based; conditions: MOLM-13, 72 h
[3] = Antiproliferative activity against mouse Ba/F3 FLT3-ITD cells assessed as reduction in cell viability measured after 72 hrs by MTS assay; format: functional, cell-based
MV4-11 = experiment: Antiproliferative activity against human MV4-11 cells harboring FLT3-ITD mutant assessed as reduction in cell viability measured after 72 hrs ny MTS assay; format: functional, cell-based; conditions: MV4-11, 72 h
[4] = biological target: Serine/threonine-protein kinase B-raf (Homo sapiens, UniProt P15056); experiment: Inhibition of BRAF (unknown origin)
[5] = biological target: Fibroblast growth factor receptor 1 (Homo sapiens, UniProt P11362); experiment: Inhibition of FGFR1 (unknown origin)
[6] = biological target: Mast/stem cell growth factor receptor Kit (Homo sapiens, UniProt P10721); experiment: Inhibition of KIT (unknown origin)
[7] = biological target: T1, Receptor-type tyrosine-protein kinase FLT3 (Homo sapiens, UniProt P36888); experiment: Inhibition of FLT3 (unknown origin)
T1 sequence (P36888 whole entry): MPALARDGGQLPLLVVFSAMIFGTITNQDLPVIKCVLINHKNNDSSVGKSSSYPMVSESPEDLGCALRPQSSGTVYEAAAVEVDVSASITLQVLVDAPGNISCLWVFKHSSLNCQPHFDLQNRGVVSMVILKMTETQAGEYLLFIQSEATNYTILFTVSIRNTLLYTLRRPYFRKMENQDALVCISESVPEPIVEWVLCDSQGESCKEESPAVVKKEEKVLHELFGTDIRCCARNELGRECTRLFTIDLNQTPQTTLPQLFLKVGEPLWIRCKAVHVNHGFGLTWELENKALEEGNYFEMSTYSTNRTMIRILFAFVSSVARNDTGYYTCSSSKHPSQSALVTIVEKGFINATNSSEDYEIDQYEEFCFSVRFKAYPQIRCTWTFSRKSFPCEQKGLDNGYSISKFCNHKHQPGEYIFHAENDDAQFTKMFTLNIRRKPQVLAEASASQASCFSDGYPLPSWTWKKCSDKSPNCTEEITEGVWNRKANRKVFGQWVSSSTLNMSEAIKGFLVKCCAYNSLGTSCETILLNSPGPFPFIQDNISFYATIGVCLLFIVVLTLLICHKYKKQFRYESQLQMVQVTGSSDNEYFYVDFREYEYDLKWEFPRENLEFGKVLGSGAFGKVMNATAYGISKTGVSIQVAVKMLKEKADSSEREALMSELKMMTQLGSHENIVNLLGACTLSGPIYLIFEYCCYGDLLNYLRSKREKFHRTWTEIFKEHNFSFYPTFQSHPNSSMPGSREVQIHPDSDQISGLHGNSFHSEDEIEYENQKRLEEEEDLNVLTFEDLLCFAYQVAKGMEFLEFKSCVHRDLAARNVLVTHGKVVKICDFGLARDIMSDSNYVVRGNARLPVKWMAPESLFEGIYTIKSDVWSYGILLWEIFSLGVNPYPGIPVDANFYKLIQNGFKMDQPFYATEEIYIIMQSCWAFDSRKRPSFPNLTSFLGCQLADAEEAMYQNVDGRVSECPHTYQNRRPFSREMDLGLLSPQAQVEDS

[8] = biological target: Receptor-type tyrosine-protein kinase FLT3 (Homo sapiens, UniProt P36888, ITD); experiment: Inhibition of FLT3-ITD mutant (unknown origin)
[9] = biological target: Receptor-type tyrosine-protein kinase FLT3 (Homo sapiens) (UniProt P36888); experiment: Inhibition of FLT3 phosphorylation in human MV4-11 cells assessed as reduction in phosphorylated FLT3 level measured after 12 hrs by western blot analysis; format: cell-based
[10] = biological target: T2, Receptor-type tyrosine-protein kinase FLT3 (Mus musculus) (UniProt Q00342); experiment: Inhibition of FLT3 phosphorylation in mouse Ba/F3 FLT3-ITD cells assessed as reduction in phosphorylated FLT3 level measured after 12 hrs by western blot analysis; format: cell-based
T2 sequence (whole entry): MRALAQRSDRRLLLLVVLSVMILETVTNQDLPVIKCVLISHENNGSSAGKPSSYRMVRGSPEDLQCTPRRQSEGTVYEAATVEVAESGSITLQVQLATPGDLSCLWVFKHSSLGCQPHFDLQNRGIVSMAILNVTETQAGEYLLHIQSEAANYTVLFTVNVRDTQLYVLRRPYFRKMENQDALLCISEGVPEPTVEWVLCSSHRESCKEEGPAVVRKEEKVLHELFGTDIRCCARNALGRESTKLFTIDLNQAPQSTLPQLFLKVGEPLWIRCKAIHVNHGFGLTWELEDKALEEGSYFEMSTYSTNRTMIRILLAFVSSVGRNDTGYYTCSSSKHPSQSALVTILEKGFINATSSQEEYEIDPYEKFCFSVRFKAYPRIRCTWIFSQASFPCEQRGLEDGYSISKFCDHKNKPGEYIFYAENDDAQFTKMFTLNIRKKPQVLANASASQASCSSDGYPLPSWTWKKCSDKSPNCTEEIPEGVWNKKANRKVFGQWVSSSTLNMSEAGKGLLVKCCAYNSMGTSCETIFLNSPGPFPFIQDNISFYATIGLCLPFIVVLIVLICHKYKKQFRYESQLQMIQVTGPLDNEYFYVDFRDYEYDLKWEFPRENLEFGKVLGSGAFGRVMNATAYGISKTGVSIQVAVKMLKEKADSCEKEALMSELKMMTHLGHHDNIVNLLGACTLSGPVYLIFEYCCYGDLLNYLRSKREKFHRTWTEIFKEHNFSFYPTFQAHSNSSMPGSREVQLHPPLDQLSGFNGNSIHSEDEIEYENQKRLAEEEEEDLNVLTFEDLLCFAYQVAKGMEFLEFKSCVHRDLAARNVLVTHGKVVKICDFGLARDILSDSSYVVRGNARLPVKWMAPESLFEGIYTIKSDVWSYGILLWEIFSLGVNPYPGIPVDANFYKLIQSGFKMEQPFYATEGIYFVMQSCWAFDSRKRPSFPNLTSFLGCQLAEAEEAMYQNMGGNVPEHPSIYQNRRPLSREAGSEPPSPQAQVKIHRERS

Monocyte = experiment: Antiproliferative activity against human peripheral blood monocyte cells assessed as cell growth inhibition at 6 to 200 uM measured after 72 hrs by MTS assay; format: toxicity, cell-based; conditions: dose 6-200 µM
[11] = biological target: T2, Receptor-type tyrosine-protein kinase FLT3 (Mus musculus); experiment: Inhibition of FLT3 phosphorylation in mouse Ba/F3 FLT3-ITD cells assessed as reduction in phosphorylated FLT3 level at 0.3 to 100 nM by sandwich ELISA assay; format: cell-based; conditions: dose 0.3-100 nM
[12] = biological target: Receptor-type tyrosine-protein kinase FLT3 (Homo sapiens) (UniProt P36888); experiment: Inhibition of FLT3 phosphorylation in human MOLM-13 cells assessed as reduction in phosphorylated FLT3 level at 0.3 to 100 nM by sandwich ELISA assay; format: cell-based; conditions: dose 0.3-100 nM
[13] = biological target: Receptor-type tyrosine-protein kinase FLT3 (Homo sapiens) (UniProt P36888); experiment: Inhibition of FLT3 phosphorylation in human MV4-11 cells assessed as reduction in phosphorylated FLT3 level at 0.3 to 100 nM by sandwich ELISA assay; format: cell-based; conditions: dose 0.3-100 nM
[14] = biological target: Receptor-type tyrosine-protein kinase FLT3 (Homo sapiens) (UniProt P36888); experiment: Inhibition of FLT3-mediated signalling pathway in human MV4-11 cells assessed as inhibition of MAPK phosphorylation at 50 nM by western blot analysis; format: cell-based; conditions: TDE = time-dependent effect
[15] = biological target: T2, Receptor-type tyrosine-protein kinase FLT3 (Mus musculus); experiment: Inhibition of FLT3-mediated signalling pathway in mouse Ba/F3 FLT3-ITD cells assessed as inhibition of MAPK phosphorylation at 50 nM by western blot analysis; format: cell-based; conditions: TDE = time-dependent effect
[16] = biological target: Receptor-type tyrosine-protein kinase FLT3 (Homo sapiens) (UniProt P36888); experiment: Inhibition of FLT3-mediated signalling pathway in human MV4-11 cells assessed as inhibition of STAT5 phosphorylation at 50 nM by western blot analysis; format: cell-based; conditions: TDE = time-dependent effect
[17] = biological target: T2, Receptor-type tyrosine-protein kinase FLT3 (Mus musculus); experiment: Inhibition of FLT3-mediated signalling pathway in mouse Ba/F3 FLT3-ITD cells assessed as inhibition of STAT5 phosphorylation at 50 nM by western blot analysis; format: cell-based

Chain of Mast/stem cell growth factor receptor Kit (P10721 whole entry): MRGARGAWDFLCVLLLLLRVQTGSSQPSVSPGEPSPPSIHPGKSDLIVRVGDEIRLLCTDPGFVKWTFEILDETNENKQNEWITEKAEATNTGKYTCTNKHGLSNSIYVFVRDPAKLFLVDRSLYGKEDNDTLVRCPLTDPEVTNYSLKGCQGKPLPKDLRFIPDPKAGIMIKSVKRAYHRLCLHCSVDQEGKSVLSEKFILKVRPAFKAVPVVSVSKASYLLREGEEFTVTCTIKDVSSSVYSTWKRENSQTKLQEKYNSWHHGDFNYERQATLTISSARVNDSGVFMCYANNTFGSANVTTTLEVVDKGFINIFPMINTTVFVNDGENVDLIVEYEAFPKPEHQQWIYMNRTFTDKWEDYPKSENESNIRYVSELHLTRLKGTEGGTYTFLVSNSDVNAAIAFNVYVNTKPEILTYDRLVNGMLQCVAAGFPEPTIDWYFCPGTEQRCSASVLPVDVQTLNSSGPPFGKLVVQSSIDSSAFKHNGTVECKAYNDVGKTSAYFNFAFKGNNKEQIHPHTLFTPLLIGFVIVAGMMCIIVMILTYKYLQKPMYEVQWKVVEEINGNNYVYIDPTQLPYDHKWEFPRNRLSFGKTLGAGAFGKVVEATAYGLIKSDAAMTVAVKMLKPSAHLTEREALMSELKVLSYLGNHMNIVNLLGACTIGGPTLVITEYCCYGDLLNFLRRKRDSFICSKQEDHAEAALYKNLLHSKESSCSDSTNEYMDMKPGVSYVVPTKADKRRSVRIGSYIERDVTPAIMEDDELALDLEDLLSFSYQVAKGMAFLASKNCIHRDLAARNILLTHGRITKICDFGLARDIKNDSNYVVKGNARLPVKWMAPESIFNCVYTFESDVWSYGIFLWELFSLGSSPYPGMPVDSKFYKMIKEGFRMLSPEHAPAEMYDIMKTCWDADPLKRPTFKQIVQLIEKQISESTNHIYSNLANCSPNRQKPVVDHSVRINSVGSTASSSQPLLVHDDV
Chain of Fibroblast growth factor receptor 1 (P11362 whole entry): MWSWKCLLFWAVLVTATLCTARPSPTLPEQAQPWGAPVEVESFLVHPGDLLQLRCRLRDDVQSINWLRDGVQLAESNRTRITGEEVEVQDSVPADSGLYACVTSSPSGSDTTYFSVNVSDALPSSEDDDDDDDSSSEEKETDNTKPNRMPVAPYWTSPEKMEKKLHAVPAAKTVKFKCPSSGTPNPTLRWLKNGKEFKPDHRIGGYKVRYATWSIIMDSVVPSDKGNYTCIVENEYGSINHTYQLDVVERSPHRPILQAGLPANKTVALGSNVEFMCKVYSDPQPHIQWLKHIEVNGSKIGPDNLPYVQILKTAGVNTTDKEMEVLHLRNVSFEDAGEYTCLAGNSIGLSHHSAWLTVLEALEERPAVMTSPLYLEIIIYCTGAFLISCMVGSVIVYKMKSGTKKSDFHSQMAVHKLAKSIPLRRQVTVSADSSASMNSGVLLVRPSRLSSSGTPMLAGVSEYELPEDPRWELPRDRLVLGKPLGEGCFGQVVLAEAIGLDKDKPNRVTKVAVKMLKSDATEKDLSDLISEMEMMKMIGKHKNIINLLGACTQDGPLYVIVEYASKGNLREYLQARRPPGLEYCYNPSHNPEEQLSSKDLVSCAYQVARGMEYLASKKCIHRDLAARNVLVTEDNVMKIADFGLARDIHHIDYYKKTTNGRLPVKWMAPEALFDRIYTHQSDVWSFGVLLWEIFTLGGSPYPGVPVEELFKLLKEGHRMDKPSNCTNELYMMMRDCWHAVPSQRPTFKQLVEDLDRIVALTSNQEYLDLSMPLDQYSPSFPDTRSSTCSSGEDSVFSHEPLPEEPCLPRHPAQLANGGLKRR
Chain of Serine/threonine-protein kinase B-raf (P15056 whole entry): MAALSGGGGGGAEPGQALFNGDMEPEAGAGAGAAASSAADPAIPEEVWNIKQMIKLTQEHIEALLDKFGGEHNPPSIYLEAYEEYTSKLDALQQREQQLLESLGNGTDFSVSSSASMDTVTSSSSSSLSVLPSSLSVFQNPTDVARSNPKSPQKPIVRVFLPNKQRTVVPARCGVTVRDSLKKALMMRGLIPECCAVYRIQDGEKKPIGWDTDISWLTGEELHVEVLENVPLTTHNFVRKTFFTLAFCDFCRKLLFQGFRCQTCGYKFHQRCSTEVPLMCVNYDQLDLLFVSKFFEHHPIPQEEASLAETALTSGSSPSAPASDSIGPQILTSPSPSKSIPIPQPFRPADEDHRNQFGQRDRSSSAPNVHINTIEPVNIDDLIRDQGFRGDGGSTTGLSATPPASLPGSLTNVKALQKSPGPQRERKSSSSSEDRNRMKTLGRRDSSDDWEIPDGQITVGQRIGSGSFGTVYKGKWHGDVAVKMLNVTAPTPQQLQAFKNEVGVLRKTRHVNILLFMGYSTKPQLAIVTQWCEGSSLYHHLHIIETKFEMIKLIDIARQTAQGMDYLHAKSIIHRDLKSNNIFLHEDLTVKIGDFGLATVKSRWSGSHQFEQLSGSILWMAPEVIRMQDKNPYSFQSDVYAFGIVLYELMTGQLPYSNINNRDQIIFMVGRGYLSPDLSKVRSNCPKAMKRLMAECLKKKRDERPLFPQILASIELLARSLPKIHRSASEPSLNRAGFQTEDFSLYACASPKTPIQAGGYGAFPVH

Compound	IC50 [1] [nM]	IC50 (HL-60) [nM]	IC50 at 72 h [2] [nM]	IC50 (MOLM-13) [nM]	IC50 [3] [nM]	IC50 (MV4-11) [nM]	other results
COc1ccc(CNc2ccc3c(c2)ncn3-c2ccccc2)cc1OCCO	> 50000	> 50000	> 400	78.2	75.4	197	–
CNC(=O)c1cc(Oc2ccc(NC(=O)Nc3ccc(Cl)c(C(F)(F)F)c3)cc2)ccn1 [SORAFENIB]	500	500	–	–	–	–	–
COc1ccc(CNc2ccc3c(c2)ncn3-c2ccccc2)cc1OC	> 50000	> 50000	> 400	113	94.8	189	IC50 [4]: > 1000 nM; IC50 [5]: > 1000 nM; IC50 [6]: 451 nM; IC50 [7]: 30 nM; IC50 [8]: 90 nM; Activity [9]: 1 nM; Activity [10]: 10 nM; Activity (Monocyte): Not Active; inhibition [11]: Active; inhibition [12]: Active; inhibition [13]: Active; inhibition [14]: Tde; inhibition [15]: Tde; inhibition [16]: Tde; inhibition [17]: Active
OCCOc1ccc(CNc2ccc3c(c2)ncn3-c2ccccc2)cc1OCCO	> 50000	> 50000	> 400	69.8	77.8	167	–
